In experiment [1] the target is Human immunodeficiency virus type 1 reverse transcriptase (Human immunodeficiency virus 1, UniProt Q72547). In words: Inhibition of biotin-dUTP labeled HIV-1 reverse transcriptase after 30 mins colorimetric streptavidin alkaline phosphatase reporter system.
In experiment [2] the test system is Human immunodeficiency virus 1. In words: Antiviral activity against pluri-resistant HIV1 IRLL98 in cell based assay. The class given is functional, organism-based. The note with it: Human immunodeficiency virus 1, IRLL98.
The target in experiment [3] is Human immunodeficiency virus type 1 reverse transcriptase (Human immunodeficiency virus 1) (UniProt Q72547). In words: Inhibition of HIV1 reverse transcriptase.
Experiment [4] relates to Human immunodeficiency virus 1. Briefly: Antiviral activity against HIV1 in cell based assay. The class given is functional, organism-based.
Experiment [5] addresses Human immunodeficiency virus type 1 reverse transcriptase (Human immunodeficiency virus 1) (UniProt Q72547). Briefly: Inhibition of biotin-dUTP labeled HIV-1 reverse transcriptase at 100 uM after 30 mins colorimetric streptavidin alkaline phosphatase reporter system.

The source made the active and inactive calls. The calls are words filed in the database; no cut-off is given here. Some results are limits rather than exact numbers.

For orientation: IC50 means the concentration at which inhibition is half-maximal. A low value points to greater potency in that assay. What is called EC50 is the concentration giving half of the maximal effect. A higher EC50 goes with a need for much substance. `Cc1ccccc1CSc1nc(N)cc(Cc2ccccc2)n1` returned an IC50 in experiment [1] of 29900 nM. Further, the EC50 was 0.22 nM in experiment [2] and below 0.14 nM in experiment [4]. This molecule also yielded an ID50 in experiment [3] of 26 nM.

Turning to `O=c1cc(Cc2ccccc2)nc(SCc2ccc3ccccc3c2)[nH]1`, the inhibition result in experiment [5] is “inactive”.

For the molecule `CC(C)(C)c1ccc(CSc2nc(Cc3ccccc3)cc(=O)[nH]2)cc1`, the inhibition entry in experiment [5] is “inactive”.

Consider `CC(Sc1nc(Cl)cc(Cc2ccccc2)n1)c1ccccc1` (stereo unspecified), for which the inhibition result in experiment [5] was “inactive”.

Regarding `Clc1cc(Cc2ccccc2)nc(SCCc2ccccc2)n1`, the inhibition entry in experiment [5] is “inactive”.

With `Nc1cc(Cc2ccccc2)nc(SCc2ccccc2)n1`, in experiment [1], the IC50 is above 100000 nM. Moreover, the EC50 was 0.22 nM in experiment [2] and below 0.14 nM in experiment [4]. Further, the ID50 in experiment [3] was found to be 26 nM.

Take `CC(Sc1nc(N)cc(Cc2ccccc2)n1)c1ccccc1` (stereo unspecified): in experiment [1], it took 63900 nM to reach half-maximal inhibition (IC50). The EC50 in experiment [2] is 0.22 nM; in experiment [4], below 0.14 nM. In experiment [3], this molecule had an ID50 of 26 nM.

On to `Cc1cccc(CSc2nc(Cl)cc(Cc3ccccc3)n2)c1`, for which, in experiment [1], the half-maximal inhibitory concentration (IC50) was 90800 nM.

For `Cc1ccccc1CSc1nc(Cl)cc(Cc2ccccc2)n1`, the inhibition result in experiment [5] is “inactive”.

For the molecule `CC(C)(C)c1ccc(CSc2nc(Cl)cc(Cc3ccccc3)n2)cc1`, the inhibition entry in experiment [5] is “inactive”.

Take `COc1cccc(CSc2nc(N)cc(Cc3ccccc3)n2)c1`: the IC50 in experiment [1] is above 100000 nM. Further, the 50% effective concentration (EC50) is 0.22 nM in experiment [2] and below 0.14 nM in experiment [4]. The molecule also came in with an ID50 in experiment [3] of 26 nM.

With `Clc1cc(Cc2ccccc2)nc(SCc2ccc3ccccc3c2)n1`, the inhibition entry in experiment [5] was “inactive”.

For the molecule `CC(C)(C)c1ccc(CSc2nc(N)cc(Cc3ccccc3)n2)cc1`, the concentration for a half-maximal effect (EC50) in experiment [2] is 0.22 nM; in experiment [4], below 0.14 nM. The inhibition result in experiment [5] is “inactive”. The same molecule returned an ID50 in experiment [3] of 26 nM.

With `COc1cccc(CSc2nc(Cl)cc(Cc3ccccc3)n2)c1`, the inhibition entry in experiment [5] is “inactive”.

With `Cc1cccc(CSc2nc(N)cc(Cc3ccccc3)n2)c1`, the IC50 in experiment [1] turned out to be 18000 nM. Besides, the EC50 in experiment [2] was 0.22 nM; in experiment [4], below 0.14 nM. In experiment [3], this molecule registered an ID50 of 26 nM.

Regarding `Nc1cc(Cc2ccccc2)nc(SCCc2ccccc2)n1`, the values for the EC50 in experiment [2] and in experiment [4] were 0.22 nM and below 0.14 nM, respectively. Besides, the inhibition result in experiment [5] is “inactive”.

Turning to `Nc1cc(Cc2ccccc2)nc(SCc2ccc3ccccc3c2)n1`, half-maximal inhibition in experiment [1] (IC50) was put at 17100 nM. The EC50 was 0.22 nM in experiment [2] and below 0.14 nM in experiment [4]. The ID50 in experiment [3] came to 26 nM.

With `Clc1cc(Cc2ccccc2)nc(SCc2ccccc2)n1`, the concentration for half-maximal inhibition (IC50) in experiment [1] was above 100000 nM.

Consider `O=c1cc(Cc2ccccc2)nc(SCc2ccccc2)[nH]1`, for which, in experiment [5], the inhibition entry was “inactive”.

As for `Clc1cc(Cc2ccccc2)nc(SCCCc2ccccc2)n1`, in experiment [5], the inhibition result is “inactive”.

In the case of `Nc1cc(Cc2ccccc2)nc(SCCCc2ccccc2)n1`, the EC50 was 0.22 nM in experiment [2] and below 0.14 nM in experiment [4]. Further, in experiment [5], the inhibition entry was “inactive”.

The values are drawn from ChEMBL document CHEMBL1157883, “Synthesis and biological evaluation of novel 2-arylalkylthio-4-amino-6-benzyl pyrimidines as potent HIV-1 non-nucleoside reverse transcriptase inhibitors” (Bioorg Med Chem Lett, 2010).
